Measurements as given in PMC8764033, “Single-molecule analysis of specificity and multivalency in binding of short linear substrate motifs to the APC/C” (Nature Communications, 2022).
Where “and” joins values, the source holds several entries; their conditions need not be identical. Equal entries are not always repeated. Where two headings read alike, the source gives them in different places. Where a SMILES comes first, the peptide text is derived from it.

Target: T1, APC/C^Cdh1 (Saccharomyces cerevisiae, UniProt P53068+P53197)
T1 construct: APC/C was purified from yeast cells; made in house; host or cells: APC/C from S. cerevisiae W303 strain NHY13 (Cdc16-TAP, Apc1-GFP, cdh1 deleted); Cdh1 from Sf9 (baculovirus)
Format: binding
Settings: for mean dwell time: representative of two independent experiments, ± SE, ligand ≤1 nM, buffer C + BSA
Experimental: Yeast strains were derivatives of W303 and are listed in Supplementary Table 2. For APC/C purification, we used a strain carrying Cdc16-TAP and lacking Cdh1 (DOM1126); in most experiments, the strain also carried Apc1-GFP (NHY13). Yeast were grown in YPD media to OD600 = 0.8, collected and flash-frozen. Cells were lysed by bead beating in lysis buffer A (50 mM HEPES pH 7.5, 150 mM KCl, 10% glycerol, 0.2% Triton X-100, 63 µM B-glycerophosphate, 48 µM sodium fluoride, 1 µg ml^−1 pepstatin A, 1 µg ml^−1 leupeptin, 1 µg ml^−1 aprotinin, 1 mM PMSF, 1 mM DTT, 0.5 mM EDTA) and APC/C was purified using magnetic IgG beads. The beads were washed using wash buffer A (20 mM HEPES pH 7.5, 150 mM KCl, 10% Glycerol, 0.05% Triton X-100). After incubation with purified Cdh1 or Cdc20, the APC/C was cleaved off the beads with TEV protease in wash buffer A with 0.05% Tween-20 (for single-molecule studies) or 0.05% Triton X-100 (for ensemble assays such as ubiquitylation) and used immediately.
For all SMOR experiments, 24 × 50 mm high precision glass coverslips (Bioscience Tools) and drilled microscope slides were passivated with a combination of PEG and PEG-biotin (coverslips) or PEG only (slides) following a previously published protocol for SiMPull[31]. Reaction chambers (~20 µl) were created using double-sided tape and epoxy. Protein was immobilized on the surface with 0.2 mg ml^−1 NeutrAvidin in buffer C (20 mM HEPES pH 7.5, 150 mM KCl, 10% glycerol, 0.05% Tween-20, 1 mM DTT). Excess NeutrAvidin was washed away and incubated with either biotin-conjugated mouse monoclonal anti-Strep-Tag II antibody (LSBio, Cat. No. LS-C203632-100) or biotin-conjugated rabbit polyclonal anti-GFP antibody (Rockland, Cat. No. 600-406-215) diluted in buffer C + BSA (0.1 mg ml^−1; Molecular Biology Grade Bovine Serum Albumin). Activator WD40 and activated APC/C (typically 50 µl containing about 65 ng APC/C, of which only a small fraction is immobilized on the glass) were immobilized using anti-Strep-Tag II, while APC/C alone was immobilized with anti-GFP. SMOR results were similar when performed in the buffer (wash buffer B) used in polarization anisotropy.
To capture dynamic protein–protein interactions, dye-labeled substrate diluted in buffer C + BSA was added to the chamber containing immobilized proteins. Interactions were imaged by TIRF microscopy as described below. For optimal signal-to-noise ratio, peptide concentration was no greater than 1 nM. Protein substrates included Hsl1 aa 667–872 and a C-terminal HaloTag followed by a TAP tag, and were produced by translation in rabbit reticulocyte lysates using TnT Quick Coupled Transcription/Translation System (Promega) (see Supplementary Table 5 for plasmids). Protein was purified with magnetic IgG beads and labeled on the bead with JF549 or JF646 dye so that unbound dye could be washed away. Purified dye-labeled protein was then cleaved from the beads using TEV protease. Before adding substrate to the reaction chamber, oxygen scavenging reagents were added (10 nM protocatechuate-3,4-dioxygenase, 2.5 mM protocatechuic acid, and 1 mM Trolox)[41]. A detailed description of the SMOR analysis pipeline is found in Supplementary Note 1.
Microscopy was performed with a Nikon Eclipse TE2000-E with Perfect Focus with a 100 × 1.49na oil, Apo TIRF DIC N2, 0.13-0.2, WD0.12 objective. Movies were recorded using the Andor iXon DU-897E-CSO. For visualizing GFP-tagged protein, a 491 nm laser was used with an ET525/50 (Chroma) filter for emission. For visualizing JF549-labeled substrate, a 561 nm laser was used with an ET595/50 (Chroma) filter for emission. For visualizing all Cy5-labeled peptides and JF646-labeled substrates, a 640 nm laser was used with an ET685/70 filter (Chroma) for emission. Initially, for each substrate tested, we acquired movies at multiple intervals to deduce the optimal interval to decrease bleaching. µManager version 2.0 was used to control the microscope and record time-lapse movies.

[1] = Supplementary Table 1, replicate 1 (movie listed first)
[2] = Supplementary Table 1, replicate 2 (movie listed second)
[3] = Supplementary Table 1, replicate 1
[4] = Supplementary Table 1, replicate 2

Compound	Dwell Time [1] [s]	Dwell Time [2] [s]	mean dwell time	binding (in words)	Dwell Time (in words) [3]	Dwell Time (in words) [4]
CC[C@H](C)[C@H](NC(=O)[C@H](Cc1ccccc1)NC(=O)[C@H](CO)NC(=O)[C@H](CCCCN)NC(=O)[C@H](CO)NC(=O)[C@H](CCCNC(=N)N)NC(=O)[C@H](CC(N)=O)NC(=O)[C@H](CC(N)=O)NC(=O)[C@H](CC(=O)O)NC(=O)[C@H](CCCCN)NC(=O)[C@H](C)NC(=O)[C@H](C)NC(=O)[C@H](CC(C)C)NC(=O)[C@@H]1CCCN1C(=O)[C@H](CC(C)C)NC(=O)[C@H](CCCNC(=N)N)NC(=O)CNC(=O)[C@H](CCC(N)=O)NC(=O)[C@H](CCC(N)=O)NC(=O)[C@H](CCC(N)=O)NC(=O)[C@H](C)N)C(=O)N[C@@H](CCCCN)C(=O)O [ySecurin D box] (H-AQQQGRLPLAAKDNNRSKSFIK-OH; N-terminus and C-terminus assumed)	0.132 ± 0.002	0.121 ± 0.006	0.132 ± 0.002 s and 0.132 s			
CC(C)C[C@H](NC(=O)[C@H](C)NC(=O)[C@H](CCCNC(=N)N)NC(=O)[C@H](CCCNC(=N)N)NC(=O)[C@@H]1CCCN1C(=O)[C@H](CCCCN)NC(=O)[C@H](CO)NC(=O)[C@H](CC(=O)O)NC(=O)[C@@H](N)CCC(N)=O)C(=O)N[C@H](C(=O)N[C@@H](CC(=O)O)C(=O)N[C@H](C(=O)N1CCC[C@H]1C(=O)N[C@H](C(=O)N[C@@H](CC(N)=O)C(=O)N[C@@H](CC(N)=O)C(=O)N[C@@H](CC(N)=O)C(=O)N1CCC[C@H]1C(=O)N[C@@H](CC(C)C)C(=O)N[C@@H](CO)C(=O)N[C@@H](CCC(N)=O)C(=O)N[C@@H](CCCCN)C(=O)O)C(C)C)C(C)C)[C@@H](C)O [Clb5 D box] (H-QDSKPRRALTDVPVNNNPLSQK-OH; N-terminus and C-terminus assumed)	0.146 ± 0.007	0.159 ± 0.004	0.159 ± 0.004 s and 0.159 s			
LIYVDKENGEPGTR-K(Cy5) [hSecurin KEN, Cy5-labeled KEN box peptide of human securin/Pttg1]				No binding	no binding	no binding
LPKATRKALGTVNRATEKSVK-K(Cy5) [AurKB D box, Cy5-labeled D box peptide of Aurora B kinase]				No binding	no binding	no binding
CC[C@H](C)[C@H](NC(=O)[C@H](CC(=O)O)NC(=O)[C@H](CO)NC(=O)[C@H](C)NC(=O)[C@H](C)NC(=O)[C@H](C)NC(=O)[C@H](C)NC(=O)[C@H](CCCCN)NC(=O)[C@@H]1CCCN1C(=O)[C@H](CCCCN)NC(=O)[C@H](CCC(N)=O)NC(=O)[C@@H](N)CCC(=O)O)C(=O)N[C@H](C(=O)N[C@@H](C)C(=O)N[C@@H](CO)C(=O)N[C@@H](Cc1ccccc1)C(=O)N[C@@H](CC(N)=O)C(=O)N[C@@H](CCCCN)C(=O)N[C@@H](CCSC)C(=O)N[C@@H](CC(N)=O)C(=O)N[C@@H](CCCCN)C(=O)O)[C@@H](C)O [Hsl1 D box mutant] (H-EQKPKAAAASDITASFNKMNK-OH; N-terminus and C-terminus assumed)				No binding	no binding	
SKAAQFMLYEETAEERNI-K(Cy5) [Acm1 ABBA, Cy5-labeled Cdh1-specific ABBA motif from pseudosubstrate yeast protein Acm1]				No binding	no binding	no binding
